Measurements taken from a melting point compilation (Tetko et al.; mined from patent text by program, amines drawn as free bases though some values may be those of a salt).

Q: With `CCOc1cc(Cn2cc(CCC(=O)O)c(-c3ccccc3)c2)cc(OCc2csc(-c3cnccn3)n2)c1` as the molecule, how does the melting point read?
A: The melting point was 97 to 98 °C.

Q: With `COc1cc(C(C)=O)cc(OC)c1OC(C)=O` as the molecule, how does the melting point read?
A: The melting point was 145 °C.

Q: For `Cc1ccccc1-c1ccc(Cl)cc1C#N`, which melting point is on record?
A: The melting point was 62 to 65 °C.

Q: For `O=C1C(=Cc2ccccc2O)c2ccccc2N1C1=NCCS1`, which melting point is on record?
A: Its melting point is 196 to 197 °C.

Q: For `Nc1c(C(=O)c2ccccc2)[nH]c2cc(Cl)ccc12`, which melting point is on record?
A: Its melting point is 128 to 130 °C.

Q: Which melting point does the source give for `Cc1nn(-c2c(Cl)cc(C(F)(F)F)cc2Cl)nc1Cl` here?
A: Its melting point is 100 to 115 °C.

Q: With `Cc1c(-c2c[nH]cc2C#N)cccc1C(F)(F)F` as the molecule, how does the melting point read?
A: Its melting point is 99 to 100 °C.

Q: With `CCOC(=O)C1(Nc2cc(Cl)cc(Cl)c2)CC(C(=O)O)Nc2cc(Cl)cc(Cl)c21` (configuration not stated) as the molecule, how does the melting point read?
A: Its melting point is 92 to 94 °C.

Q: With `CCC(=O)c1c(C#N)nn(-c2c(Cl)cc(C(F)(F)F)cc2Cl)c1N` as the molecule, how does the melting point read?
A: Its melting point is 167 to 169 °C.

Q: Which melting point does the source give for `COCc1cccc(C=CC(O)c2ccccc2)c1NC(=O)CC1c2ccccc2Oc2ccccc21` (configuration not stated) here?
A: Its melting point is 204 to 206 °C.

Q: With `CNC(=O)c1ncn(-c2cc3c(=O)n(NS(C)(=O)=O)c(=O)[nH]c3cc2C(F)(F)F)n1` as the molecule, how does the melting point read?
A: The melting point was 257 to 260 °C.

Q: For `COc1ccc2c(c1)CCC1=C2CCC(=O)C1`, which melting point is on record?
A: The melting point was 75 to 77 °C.

Q: For `Cn1c(=O)c(-c2ccc(Cl)cc2Cl)cc2c3cc(-c4nc(CN)cs4)ccc3n(C)c21`, which melting point is on record?
A: The melting point was 261 to 266 °C.

Q: With `CC(=O)Nc1c(C(=O)C2CCCCC2)[nH]c2cc(Cl)ccc12` as the molecule, how does the melting point read?
A: The melting point was 198 °C.

Q: For `CCOC(=O)C1Cc2cc(OC)c(OC)cc2N1C(=O)CCSC(C)=O` (configuration not stated), which melting point is on record?
A: The melting point was 104 to 106 °C.

Q: With `O=S(=O)(c1ccccc1)C1CCC(COc2ccc(F)cc2)O1` (racemic) as the molecule, how does the melting point read?
A: Its melting point is 102 to 104 °C.

Q: Which melting point does the source give for `CC(=O)N1CCN=C1Nc1cccc2c1CCC2` here?
A: The melting point was 180 to 182 °C.

Q: With `O=C1NC2(CCCC2)CCCC1Cl` (configuration not stated) as the molecule, how does the melting point read?
A: Its melting point is 109 to 111 °C.

Q: Which melting point does the source give for `CCOC(=O)C(C)(C)Oc1ccc(-c2ccc(CCNC(=O)c3cc(OC)cc(OC)c3)cc2)cc1` here?
A: Its melting point is 74 °C.

Q: For `CCc1c(C(=O)C(N)=O)c2c(OCC(=O)NOCc3ccccc3)cccc2n1Cc1ccccc1`, which melting point is on record?
A: Its melting point is 167 to 169 °C.

Q: Which melting point does the source give for `Cc1cc2cc(CN3CCCC3)cnc2cc1NC(=O)c1ccc(-c2ccccc2F)cc1` here?
A: Its melting point is 148 to 149 °C.

Q: For `O=[N+]([O-])c1ccc(CCNCCc2ccc([N+](=O)[O-])cc2)cc1`, which melting point is on record?
A: The melting point was 86 to 91 °C.

Q: With `O=C(Nc1ccc(F)cc1)c1cn2nc(N3CCN(C(=O)c4ccccc4C(F)(F)F)CC3)ccc2n1` as the molecule, how does the melting point read?
A: The melting point was 115 to 117 °C.

Q: Which melting point does the source give for `O=C(CCC(=O)N1CCC(c2ccc(Cl)cc2)CC1)c1ccc2c(c1)CNCCC2` here?
A: Its melting point is 122 to 124 °C.

Q: With `CCOC(=O)C1=CC2(CCC1S(=O)(=O)Nn1cccc1)OCCO2` (configuration not stated) as the molecule, how does the melting point read?
A: Its melting point is 115 to 117 °C.

Q: For `CC[C@H](C)[C@H](N)C(=O)N(CC(C)C)C(=O)[C@@H]1CCCN1CC(=O)[C@H](Cc1ccccc1)NC(=O)OCc1ccccc1`, which melting point is on record?
A: Its melting point is 80 to 81 °C.

Q: Which melting point does the source give for `COc1cc2c(cc1Cl)NC(=O)c1ccccc1S2` here?
A: The melting point was 280 to 283 °C.

Q: With `CCC1c2ccccc2-c2ccccc21` as the molecule, how does the melting point read?
A: The melting point was 152 to 154 °C.

Q: For `Cc1cc(C)c(=O)n(C(C(=O)NS(=O)(=O)c2ccc(C(C)C)cc2)c2ccc3c(c2)OCO3)n1` (configuration not stated), which melting point is on record?
A: The melting point was 105 °C.

Q: For `O=C(O)CCNC(=O)c1ccc(N(Cc2ccc(C3=CCCCC3)cc2)C(=O)C=Cc2cccc(OC(F)(F)F)c2)cc1`, which melting point is on record?
A: The melting point was 178 to 180 °C.

Q: For `O=C(O)CCC(=O)c1ccc(NC(=O)c2cccc(F)c2)cc1`, which melting point is on record?
A: Its melting point is 239 to 241 °C.

Q: With `Cc1ccc(C(=O)OCn2c(Br)c(Br)c(S(=O)(=O)C(F)(F)F)c2-c2ccc(Cl)cc2)cc1` as the molecule, how does the melting point read?
A: Its melting point is 74 to 78 °C.

Q: With `CC(C)[C@H](NC(=O)N(C)Cc1ccccn1)C(=O)N[C@@H](Cc1ccccc1)[C@@H](O)[C@@H](O)[C@H](Cc1ccccc1)NC(=O)OC(C)(C)C` as the molecule, how does the melting point read?
A: The melting point was 91 to 93 °C.

Q: Which melting point does the source give for `Cc1ccc(C)n1-c1ccc(C(C)C#N)cc1` (configuration not stated) here?
A: Its melting point is 79 to 80 °C.

Q: Which melting point does the source give for `Cc1c(Cl)cc(C(C)(C)C)c(O)c1-c1nc2ccc(F)cc2c(=O)[nH]1` here?
A: The melting point was 224 to 225 °C.

Q: Which melting point does the source give for `Cn1nc(-c2ccc(S(C)(=O)=O)cc2Cl)c2c1CCCC2=O` here?
A: The melting point was 208 °C.

Q: With `CCCCc1oc2ccccc2c1C(O)c1ccc(O)cc1` (configuration not stated) as the molecule, how does the melting point read?
A: The melting point was 94 to 96 °C.
